Measurements as given in patent publication US9274101B2 (BIOLOG, Inc., priority 2001, dated 2016).

What was measured:
[1] = tested on: HL-60 cells; experiment: Effect of 1 mM chloramphenicol on HL-60 energy utilization; type: cell-based, human; conditions: negative control without chloramphenicol
How it was run: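 Washed HL-60 cells (5×10^4/well) in DME-R with chloramphenicol (1 mM final) were exposed to test energy sources at 0.033 to 20 mM final for 24 h at 37° C, 5% CO2. MTS/MPMS reagent was then added and read 24 h later at 490 nm (650 nm reference). Cell-free plate OD was subtracted, and values were given as % of the negative control without chloramphenicol.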

[2] = tested on: E. coli MG1655; type: cell-based, Escherichia coli
[3] = tested on: Undifferentiated HL-60 cells; experiment: Energy use by undifferentiated HL-60 cells; type: cell-based, human; conditions: Homo sapiens, HL-60, 24 h, read-out: Energy Use by Undifferentiated HL-60 Cells
[4] = tested on: HL-60 cells; experiment: HL-60 responses to selected compounds at a range of concentrations; type: cell-based, human; conditions: Homo sapiens, HL-60, read-out: HL-60 Cell Responses to Selected Compounds from PM1 and PM2
How it was run: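 Washed HL-60 cells (5×10^4/well) in DME-R were exposed to test energy sources at final 0.033 to 20 mM for 24 h at 37 °C, then MTS/MPMS was added for a further 24 h. OD490 (ref 650 nm) was corrected with cell-free control plates and normalized to % of no-energy-source control.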

Cc1cn([C@H]2C[C@H](O)[C@@H](CO)O2)c(=O)[nH]c1=O [Thymidine]
Effect of 1 mM chloramphenicol on HL-60 Energy Utilization ([1]; energy source 0.03 mM with 1 mM chloramphenicol): 8.4 % of negative control | Effect of 1 mM chloramphenicol on HL-60 Energy Utilization ([1]; energy source 0.10 mM with 1 mM chloramphenicol): 5.8 % of negative control | Effect of 1 mM chloramphenicol on HL-60 Energy Utilization ([1]; energy source 0.33 mM with 1 mM chloramphenicol): 6.4 % of negative control | Effect of 1 mM chloramphenicol on HL-60 Energy Utilization ([1]; energy source 1.00 mM with 1 mM chloramphenicol): 3.1 % of negative control | Effect of 1 mM chloramphenicol on HL-60 Energy Utilization ([1]; energy source 3.3 mM with 1 mM chloramphenicol): 8.8 % of negative control | Effect of 1 mM chloramphenicol on HL-60 Energy Utilization ([1]; energy source 10 mM with 1 mM chloramphenicol): 5.8 % of negative control | Effect of 1 mM chloramphenicol on HL-60 Energy Utilization ([1]; energy source 15 mM with 1 mM chloramphenicol): 6.0 % of negative control | Effect of 1 mM chloramphenicol on HL-60 Energy Utilization ([1]; energy source 20 mM with 1 mM chloramphenicol): 7.3 % of negative control | suitability as nitrogen source (growth, purple color) [2]: not suitable | activity at 30 µM ([3]; Conc. 0.03 mM): 84.1% | activity at 100 µM ([3]; Conc. 0.10 mM): 106% | activity at 330 µM ([3]; Conc. 0.33 mM): 101% | activity at 1000 µM ([3]; Conc. 1.00 mM): 90.9% | activity at 3300 µM ([3]; Conc. 3.3 mM): 111% | activity at 10000 µM ([3]; Conc. 10 mM): 80.3% | activity at 15000 µM ([3]; Conc. 15 mM): 81.3% | activity at 20000 µM ([3]; Conc. 20 mM): 52.3% | activity at 30 µM ([4]; Conc. 0.03 mM): 121% | activity at 100 µM ([4]; Conc. 0.10 mM): 125% | activity at 330 µM ([4]; Conc. 0.33 mM): 128% | activity at 1000 µM ([4]; Conc. 1.00 mM): 134% | activity at 3300 µM ([4]; Conc. 3.3 mM): 129% | activity at 10000 µM ([4]; Conc. 10 mM): 106% | activity at 15000 µM ([4]; Conc. 15 mM): 91.5% | activity at 20000 µM ([4]; Conc. 20 mM): 68.5%
